Experiments:
COX-1 [1] = molecular target: T1, COX-1 (Ovis aries, UniProt P05979); settings: previously reported compounds 1 and 2; cited from earlier work
T1 construct: purchased Cayman Chemical Co. 560131
T1 sequence (P05979 25-600): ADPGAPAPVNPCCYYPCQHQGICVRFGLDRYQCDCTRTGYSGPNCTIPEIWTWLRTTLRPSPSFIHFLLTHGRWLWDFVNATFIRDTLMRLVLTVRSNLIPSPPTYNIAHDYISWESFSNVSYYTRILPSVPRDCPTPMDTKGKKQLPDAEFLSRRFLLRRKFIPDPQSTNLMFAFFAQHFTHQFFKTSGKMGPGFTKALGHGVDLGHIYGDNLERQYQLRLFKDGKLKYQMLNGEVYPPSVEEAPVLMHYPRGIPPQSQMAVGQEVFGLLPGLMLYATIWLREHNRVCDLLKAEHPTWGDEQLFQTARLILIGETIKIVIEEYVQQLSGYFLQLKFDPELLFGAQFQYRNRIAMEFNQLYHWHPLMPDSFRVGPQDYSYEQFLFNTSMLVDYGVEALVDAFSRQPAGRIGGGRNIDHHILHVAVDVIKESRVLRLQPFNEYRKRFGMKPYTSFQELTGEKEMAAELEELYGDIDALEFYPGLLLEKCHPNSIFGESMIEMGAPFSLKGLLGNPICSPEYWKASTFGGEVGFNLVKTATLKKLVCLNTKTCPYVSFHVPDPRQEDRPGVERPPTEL

COX-2 = molecular target: T2, COX-2 (Homo sapiens, UniProt P35354); assay: Human whole blood assay for COX-2 (LPS stimulated PGE2); format: cell-based; design: endogenous in cells; host or cells: human whole blood, aspirin-pretreated, LPS-stimulated
T2 sequence (P35354 18-604): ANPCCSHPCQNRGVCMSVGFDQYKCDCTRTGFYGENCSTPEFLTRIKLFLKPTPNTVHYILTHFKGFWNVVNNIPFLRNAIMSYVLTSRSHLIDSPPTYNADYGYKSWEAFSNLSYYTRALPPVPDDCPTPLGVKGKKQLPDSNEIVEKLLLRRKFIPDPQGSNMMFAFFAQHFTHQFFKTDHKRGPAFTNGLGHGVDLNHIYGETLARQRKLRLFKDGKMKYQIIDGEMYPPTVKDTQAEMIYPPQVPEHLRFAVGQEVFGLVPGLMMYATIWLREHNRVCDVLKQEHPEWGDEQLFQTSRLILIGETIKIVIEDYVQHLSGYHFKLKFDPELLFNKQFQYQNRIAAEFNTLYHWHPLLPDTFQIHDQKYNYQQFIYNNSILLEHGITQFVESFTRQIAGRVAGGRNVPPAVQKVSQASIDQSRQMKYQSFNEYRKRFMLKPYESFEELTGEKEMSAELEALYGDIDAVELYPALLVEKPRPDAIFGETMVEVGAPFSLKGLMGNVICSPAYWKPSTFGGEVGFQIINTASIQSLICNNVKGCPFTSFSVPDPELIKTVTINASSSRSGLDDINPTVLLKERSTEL
Experimental: (§1) The use of human blood for the whole blood assay was duly approved by the institutional ethical committee of the University for human subjects. Production of prostaglandin PGE2 during lipopolysaccharide (LPS) stimulated whole blood was used to quantify COX-2 inhibitory activity whereas calcium ionophore (A23187) stimulated thromboxane (TxB2) production was used to measure COX-1 inhibitory activity of the compounds.
COX-2 assay was performed by inactivating COX-1 with 50 µL aspirin (10 µg/mL) per 400 µL of blood sample.

COX-1 [2] = molecular target: T3, COX-1 (Homo sapiens, UniProt P23219); assay: Human whole blood assay for COX-1 (A23187 stimulated TxB2); format: cell-based
T3 construct: endogenous in cells; host or cells: human whole blood (heparinized, venipuncture)
Source text: as §1
Approval for the use of human blood was taken from the institutional ethical committee of Guru Nanak Dev University Amritsar and informed consent was obtained from the subject[32],[33]. All experiments were performed in accordance with the relevant guidelines and regulations. By venipuncture, the blood sample was collected in heparinized tubes. […] Each sample in duplicate was assayed for TxB2 (the breakdown product of TxA2) using TXB2 Express ELISA kit (Cayman Chemicals, Ann Arbor, MI) by the reported protocol.

[3] = molecular target: T4, 5-LOX (Soybean lipoxygenase) (Glycine max, UniProt P08170); assay: Lipoxygenase inhibitory activity assay; format: biochemical
T4 construct: purchased Cayman Chemical Co. 760700
T4 sequence (P08170 1-839): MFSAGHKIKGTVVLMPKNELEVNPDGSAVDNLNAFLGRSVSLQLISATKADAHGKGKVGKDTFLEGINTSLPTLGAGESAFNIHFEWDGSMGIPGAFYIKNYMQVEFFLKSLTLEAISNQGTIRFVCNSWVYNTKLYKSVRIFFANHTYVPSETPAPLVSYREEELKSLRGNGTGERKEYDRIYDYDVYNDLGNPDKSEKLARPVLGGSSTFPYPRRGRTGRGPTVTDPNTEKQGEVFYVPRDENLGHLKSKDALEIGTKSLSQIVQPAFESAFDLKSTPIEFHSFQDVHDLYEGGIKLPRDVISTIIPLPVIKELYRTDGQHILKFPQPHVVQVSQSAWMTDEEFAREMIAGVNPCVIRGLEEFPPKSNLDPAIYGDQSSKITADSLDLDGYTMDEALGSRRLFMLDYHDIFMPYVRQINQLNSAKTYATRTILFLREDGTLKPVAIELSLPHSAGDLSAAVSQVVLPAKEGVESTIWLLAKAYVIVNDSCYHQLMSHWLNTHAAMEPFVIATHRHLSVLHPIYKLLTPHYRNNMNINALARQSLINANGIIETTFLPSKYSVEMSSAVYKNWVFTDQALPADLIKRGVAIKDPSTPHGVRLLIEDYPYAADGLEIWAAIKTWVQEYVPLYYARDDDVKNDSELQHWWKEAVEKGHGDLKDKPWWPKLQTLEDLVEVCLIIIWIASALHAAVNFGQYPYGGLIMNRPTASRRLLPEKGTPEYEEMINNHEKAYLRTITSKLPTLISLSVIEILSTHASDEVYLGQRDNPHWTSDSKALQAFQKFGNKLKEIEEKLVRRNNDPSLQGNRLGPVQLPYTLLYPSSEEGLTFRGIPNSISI
Experimental: 10 µL of the compound of each concentration was mixed with 90 µL 5-LOX (Soybean lipoxygenase in assay buffer) in the specified wells of the 96-well plate. Two wells containing assay buffer and AA acted as blanks whereas four wells, each carrying enzyme and AA, were positive controls. 10 µL AA was added to each test well and the plate was shaken for 5 min. Chromogen (100 µL) was added to each well and the plate was again shaken for 5 min. The absorbance of each well at 490 nm was recorded on microplate scanning spectrophotometer. As per the protocol given with the assay kit, the 5-LOX inhibitory activity for each compound at each concentration was determined using the mean of the two values (duplicate experiments) with deviation <5%.

[4] = system: carrageenan-induced inflammation in rat; assay: Carrageenan induced paw inflammation (pretreatment)
Experimental: In-vivo biological experiments were performed on male wistar rat (250–300 g). […] The animals were given free supply of food and water. The use of animals for the biological studies was duly permitted by the institutional animal ethical committee (IAEC) of the University. […] All the doses were administered intraperitoneally.
The paw thickness of the animals was measured with vernier callipre at 1 h intervals up to the 5th hour and compared with the control.
For anti-inflammatory activity, carageenan induced paw edema model with three groups of animals, 5 in each, were used[22]. All the drugs were administered intraperitoneally.

COX-1 [5] = molecular target: T1, COX-1; assay: Isothermal titration calorimetry with COX-1; format: binding; settings: ITC
Experimental: 100 µM solution of the compound in HPLC grade DMSO and Tris-HCl buffer (1:9) (pH 7.4) was prepared. 5 µL of enzyme was diluted with 500 µL Tris-HCl buffer. 19 consecutive injections of 2 µL each at 120 s interval were made to the enzyme solution taken in the sample cell. The heat change in the cell was determined. The control titrations for determining the background heat (that was subtracted from the main experiment) were performed by taking buffer solution in the cell and making successive additions of the titrant. The titration heat profiles and the binding parameters were read with Microcal software origin 7.0.

[6] = system: acetic acid induced writhings in rat; assay: Acetic acid induced writhing (analgesic activity); settings: ip
Experimental: In-vivo biological experiments were performed on male wistar rat (250–300 g). […] The animals were given free supply of food and water. […] Acetic acid induced algesia model and carragennan induced inflammatory model were used for these studies. […] All the doses were administered intraperitoneally.
Analgesic activity was studied using acetic acid induced writhing. Animals in 13 groups, each consisting of 5 animals, were used. Intraperitoneal administration of 0.6% acetic acid induced abdominal writhings that were characterized by arching of back, extension of hind limbs and contraction of abdominal musculature[36]. […] All the drugs were administered intraperitoneally.

[7] = system: carrageenan induced paw edema; assay: Carrageenan induced paw edema, effect on pre-existing inflammation; format: in vivo, rat; settings: 10 mg kg^−1 ip 60 min after carrageenan
Experimental: Paw thickness (mm) was used as an index of inflammation and measured at 30 min, 1 h, 2 h, 3 h, 4 h, 5 h, 6 h, 8 h, and 24 h after the carrageenan injection.
Paw thickness (mm) was used as index of inflammation and measured at 30 min, 1 h, 2 h, 3 h, 4 h, 5 h, 6 h, 8 h, and 24 h after the carrageenan injection.

T3 sequence (P23219 24-599): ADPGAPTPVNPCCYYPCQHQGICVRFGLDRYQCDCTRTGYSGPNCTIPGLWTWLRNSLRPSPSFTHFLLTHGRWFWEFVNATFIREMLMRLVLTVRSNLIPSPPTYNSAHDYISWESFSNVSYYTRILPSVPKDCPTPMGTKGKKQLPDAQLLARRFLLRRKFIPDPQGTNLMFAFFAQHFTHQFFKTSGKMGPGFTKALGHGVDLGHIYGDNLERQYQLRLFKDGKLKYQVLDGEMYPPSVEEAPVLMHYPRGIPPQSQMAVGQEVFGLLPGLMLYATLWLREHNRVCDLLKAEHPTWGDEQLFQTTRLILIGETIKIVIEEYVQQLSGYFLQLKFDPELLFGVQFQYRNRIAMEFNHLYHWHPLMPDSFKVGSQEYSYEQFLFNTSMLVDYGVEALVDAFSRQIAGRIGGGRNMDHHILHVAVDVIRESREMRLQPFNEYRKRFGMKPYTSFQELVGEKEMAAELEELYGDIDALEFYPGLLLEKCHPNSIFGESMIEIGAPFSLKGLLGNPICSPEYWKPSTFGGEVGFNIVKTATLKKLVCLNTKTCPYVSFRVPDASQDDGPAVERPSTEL

## CC1=NN(c2cccc(Cl)c2)C(=O)C1=Cc1cn(CCCOc2cc(O)c3c(=O)cc(-c4ccccc4)oc3c2)c2ccccc12 [Compound 1]
COX-1 [1]
  IC50: 118 ± 5.5 µM

## O=C1NC(=O)C(=Cc2cn(C[C@H](O)Cn3c4ccccc4c(=O)c4ccccc43)c3ccccc23)C(=O)N1 [(S)-3a]
COX-2; 1 µM
  effect on LPS stimulated PGE2 production: inhibited LPS stimulated PGE2 production
COX-2; final conc 1 µM, LPS 10 µg mL^−1
  Production of PGE2, +LPS: 0.93 ± 0.1 ng/mL
COX-1 [2]; 1 µM
  effect on ionophore stimulated TxB2 production: had no effect
COX-1 [2]; final conc 1 µM, A23187 50 µM
  Production of TXB2, +Ca^2+ Ionophore: 1.95 ± 0.01 ng/mL
[3]
  IC50: 0.2 ± 0.015 µM
[4]; 10 mg kg^−1
  reduction of carrageenan induced inflammation: 25%
[4]; end of 4th and 5th hour
  effect on paw inflammation compared with indomethacin: comparable to that of indomethacin
[4]; ip 30 min before carageenan, measured up to 5th hour
  effect on carageenan induced paw inflammation (paw thickness): Significant decrease
COX-1 [5]
  TΔS: -0.829 kcal/mol
  ΔG: -4.304 kcal/mol
  ΔH: -5.134 kcal/mol

## COc1ccc2c(c1)c(CC(=O)O)c(C)n2C(=O)c1ccc(Cl)cc1 [Indomethacin, reference compound]
[6]
  effect on number of acetic acid induced writhing vs control: significantly decreased
[7]; after 5 h of treatment
  effect on pre-existing paw edema (paw thickness): decrease paw edema
[7]; after 24 h of treatment
  duration of decrease in paw edema: sustained even after 24 h

From PMC6030096, “Synergy of Physico-chemical and Biological Experiments for Developing a Cyclooxygenase-2 Inhibitor” (Scientific Reports, 2018)
